Key:
human VSM cells [1] = assay: [3H]thymidine incorporation into DNA, human VSM cells; assay type: cell-based; conditions: for inhibition of DNA synthesis ([3H]thymidine incorporation): CDU 1.0 to 20 μM
Method: Human VSM cells were grown to 80-90% confluence and serum-starved (except where indicated) for 1 day.
FIG. 1a. Immediately following PDGF-BB (30 ng/ml) stimulation, CDU or DMSO vehicle (as a control, indicated on chart as “cont”) was added at the concentrations indicated. After 18 h, thymidine incorporation into DNA was assessed as described in Example 1.
FIG. 1b. Human VSM cells grown and challenged as in FIG. 1a, but the cells were stimulated with 10% serum rather than with PDGF-BB.
Human VSM cells were grown to 80-90% confluence and serum-starved as in FIG. 1. PDGF-BB (30 ng/ml) was added to all but control wells, followed immediately by the addition of mixed EETs and/or CDU at the concentrations indicated of total EETs. [^3H]Thymidine was added for the last 6 h of incubation, and its incorporation into DNA was assessed as described in Materials and Methods. Error bars represent SD; *p<0.05 compared to PDGF alone. Data shown are representative of two independent experiments.
Human VSM cells were grown to 80-90% confluence and serum-starved as in FIG. 1. PDGF-BB (30 ng/ml) was added to all but control wells and, at the times indicated after PDGF addition, CDU (10 μM) was added. At time=0, CDU and PDGF were added simultaneously. [^3H]Thymidine was added for the last 6 h of incubation and its incorporation into DNA was assessed as described in Example 1. Error bars represent SD; *p<0.05 compared to PDGF alone. Data shown are representative of three independent experiments.
Cell Culture. Human aortic smooth muscle cells were obtained from Clonetics (San Diego Calif.) at passage 3 and were maintained in MCBD 131 media supplemented with 2.5% FBS, 5 mg/L bovine insulin, 2 ug/L human recombinant EGF, 1 ug/L human recombinant PDGF-BB (“PDGF” is platelet derived growth factor, which is composed of a dimer of two chains, the A chain and the B chain, “PDGF-BB is a 24.3 kD homodimer of two B chains), 100 u/ml of penicillin, 100 u/ml streptomycin, and 2.5 ug/ml amphotericin B. The cells were growth-arrested by placing them in quiescence medium containing MCDB 131 medium, 20 mM HEPES (pH 7.4), 5 mg/ml transferrin, 0.5 mg/ml BSA, 50 U/ml penicillin, 50 U/ml streptomycin, and 2.5 ug/ml amphotericin B. Quiescence medium was changed daily for 1-2 days before each experiment. HL-60 cells were obtained from ATCC or from D. Hyde (UC Davis). HL-60 cells were cultured at cell densities between 2×10^5 and 8×10^5 cells/mL in RPMI-1640 (Mediatech) supplemented with 10% fetal calf serum.
Proliferation Assays. [^3H]thymidine incorporation assays were performed. […] At the indicated times, the number of cells in the plate was calculated by subjecting the cells to trypsinization and the cell density quantitated by light microscopy using a hemocytometer.

HL-60 cells = assay: HL-60 cell proliferation (hemocytometer count); assay type: cell-based, human; conditions: 12 μM, 24 and 48 h, FIG. 2
Method: Human promyelocytic HL-60 were incubated in serum-containing medium and CDU (12 μM) or DMSO vehicle was added at time zero. At 24 and 48 h after CDU addition the cells were counted using a hemocytometer. Error bars represent SD. Data shown are representative of two independent experiments. Cell Culture. Human aortic smooth muscle cells were obtained from Clonetics (San Diego Calif.) at passage 3 and were maintained in MCBD 131 media supplemented with 2.5% FBS, 5 mg/L bovine insulin, 2 ug/L human recombinant EGF, 1 ug/L human recombinant PDGF-BB (“PDGF” is platelet derived growth factor, which is composed of a dimer of two chains, the A chain and the B chain, “PDGF-BB is a 24.3 kD homodimer of two B chains), 100 u/ml of penicillin, 100 u/ml streptomycin, and 2.5 ug/ml amphotericin B. The cells were growth-arrested by placing them in quiescence medium containing MCDB 131 medium, 20 mM HEPES (pH 7.4), 5 mg/ml transferrin, 0.5 mg/ml BSA, 50 U/ml penicillin, 50 U/ml streptomycin, and 2.5 ug/ml amphotericin B. Quiescence medium was changed daily for 1-2 days before each experiment. HL-60 cells were obtained from ATCC or from D. Hyde (UC Davis). […] At the indicated times, the number of cells in the plate was calculated by subjecting the cells to trypsinization and the cell density quantitated by light microscopy using a hemocytometer.

human VSM cells [2] = assay: LDH release into media; assay type: cell-based; conditions: PDGF-BB or 10% serum, CDU 10 and 20 μM, FIG. 4b
Method: FIG. 4b. Human VSM cells were grown continuously in the presence of either 10% serum or PDGF-BB (30 ng/ml). Upon achieving confluency, the cells were incubated with CDU at the indicated concentrations and LDH release into the media was measured as described in Example 1. Evaluation of Cell Membrane Integrity and Toxicity. To evaluate the toxicity of compounds, as indicated by cellular trypan blue permeability, cells were plated in 35 mm dishes. After two days, the medium in the dish was replaced with fresh medium supplemented with the compound of interest or vehicle. At the indicated time post-treatment, the supernatant was removed and adherent cells were removed using trypsin. After dislodging the adherent cells, the cell suspension was pooled with the supernatant and centrifuged. The resulting cell pellet was resuspended and a trypan blue solution (0.4% in normal saline) was added to the aliquot. After incubating for approximately 5 minutes, the sample was evaluated by light microscopy. To evaluate lactate dehydrogenase (LDH) release, cells were harvested and plated onto 24 well plates and serum starved for one to two days. Test compounds were added and after 65 hours, media was removed for measurement of LDH activity. LDH activity was determined by NADH oxidation using Sigma Tox-7 in vitro toxicology kit and reported as the amount of LDH activity in the media.

[3] = molecular target: soluble epoxide hydrolase (sEH); conditions: cited from earlier work

CCCCCCCCCCCCNC(=O)NC1CCCCC1 [CDU, 1-cyclohexyl-3-dodecyl urea]
time of CDU addition after PDGF with most profound inhibition (human VSM cells [1]; 10 μM CDU, PDGF-BB 30 ng/ml, FIG. 5): 4 h
inhibition of DNA synthesis ([3H]thymidine incorporation) (human VSM cells [1]; 10% serum stimulated, FIG. 1b): dose-dependent inhibition of DNA synthesis
inhibition of DNA synthesis ([3H]thymidine incorporation) (human VSM cells [1]; PDGF-BB (30 ng/ml) stimulated, 18 h, FIG. 1a): dose-dependent inhibition of DNA synthesis
PDGF-stimulated [3H]thymidine incorporation (human VSM cells [1]; PDGF-BB, EETs 5 to 10 μM total, CDU 2.5 and 10 μM, separately or together, FIG. 3): inhibition of PDGF-stimulated [^3H]thymidine incorporation
proliferation of HL-60 cells (HL-60 cells): proliferated to a similar extent
LDH appearance in the media (human VSM cells [2]): unchanged
Ki [3]: 0.02 ± 0.002 µM
